These results are taken from patent US8530648B2, “Diaza-spiro[5.5]undecanes” (Novartis AG, priority 2009, dated 2013).

SMILES strings stand for the structures.

The target of experiment [1] is T1, hOx1R (Homo sapiens (Human), UniProt O43613). Briefly: Calcium accumulation in cells (FLIPR), hOx1R. The class given is cell-based. The note with it: for Ki: inhibition of orexin A induced calcium accumulation, Cheng and Prusoff correction. The method in brief: (§1)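 Cells expressing human orexin 1 or 2 receptor, serum-deprived overnight, loaded with Fluo-4-AM (2 μM) plus 0.1 mM probenecid, pH 7.4 HEPES buffer with 1% BSA.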
T1 sequence (O43613 whole entry): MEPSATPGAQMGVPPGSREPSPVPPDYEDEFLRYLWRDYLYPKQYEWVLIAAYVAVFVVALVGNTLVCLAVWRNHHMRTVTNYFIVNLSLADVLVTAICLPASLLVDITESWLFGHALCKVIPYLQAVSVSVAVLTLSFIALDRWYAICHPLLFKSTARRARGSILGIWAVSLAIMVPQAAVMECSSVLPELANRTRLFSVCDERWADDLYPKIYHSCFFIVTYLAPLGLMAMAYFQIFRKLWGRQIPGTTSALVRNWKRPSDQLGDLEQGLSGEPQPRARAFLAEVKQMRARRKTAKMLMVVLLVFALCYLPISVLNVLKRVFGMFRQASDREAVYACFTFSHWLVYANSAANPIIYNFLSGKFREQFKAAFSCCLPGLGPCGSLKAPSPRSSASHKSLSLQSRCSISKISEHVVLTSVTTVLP

The target of experiment [2] is T2, hOx2R (Homo sapiens (Human), UniProt O43614). Nature of the experiment: Calcium accumulation in cells (FLIPR), hOx2R. The note with it: inhibition of orexin A induced calcium accumulation, Cheng and Prusoff correction. It is filed as cell-based. A digest of the protocol: as §1
T2 sequence (O43614 whole entry): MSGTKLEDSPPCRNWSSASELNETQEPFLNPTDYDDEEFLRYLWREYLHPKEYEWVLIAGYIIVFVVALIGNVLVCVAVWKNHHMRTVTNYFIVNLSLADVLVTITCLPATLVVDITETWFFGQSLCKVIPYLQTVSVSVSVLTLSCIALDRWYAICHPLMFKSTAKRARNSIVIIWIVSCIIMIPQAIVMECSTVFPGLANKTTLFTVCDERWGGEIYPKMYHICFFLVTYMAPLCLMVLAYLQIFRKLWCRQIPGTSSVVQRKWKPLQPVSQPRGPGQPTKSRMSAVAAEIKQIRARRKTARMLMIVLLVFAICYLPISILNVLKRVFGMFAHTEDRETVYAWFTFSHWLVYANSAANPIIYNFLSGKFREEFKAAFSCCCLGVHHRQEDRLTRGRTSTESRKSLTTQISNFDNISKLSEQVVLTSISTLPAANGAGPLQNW
The target in experiment [3] is T1, hOx1R. Briefly: Radioligand binding assay, [125I]orexin A, hOx1R. The settings on record: radioligand [125I]orexin A, competition. The protocol: (§2) For crude cell membrane preparations, cells (CHO, Chinese hamster ovary or HEK, human embryonic kidney) expressing human orexin 1 or human orexin 2 receptors, were washed with HEPES (10 mM, pH 7.5), scraped off the culture plates with the same buffer, and centrifuged at 4° C. for 5 min at 2500×g. The cell pellet was either stored at −80° C. or used directly. Before the experiments, cell membranes were re-suspended in binding assay buffer (10 mM HEPES, 0.5% (w/v) bovine serum albumin, pH 7.5) by homogenisation with a Polytron homogeniser at 50 Hz for 20 s. Cell membranes were also used as made available by commercial providers.
(§3) In initial saturation experiments (to calculate Bmax), cell homogenates (150 μl) were incubated with 25-300 pM of the radioligand ([^125I]orexin A, 50 μl), 8 concentrations in triplicates in the presence or absence Orexin A (1 μM, 50 μl) to define non specific binding. Bound radioactivity was measured, and data were analysed with the program XLFIT or Graphpad Prism. Protein concentration was determined according to the Bradford/BioRad Protein Assay Kit.
(§4) In competition experiments, cell homogenates (150 μl) were incubated in assay buffer (10 mM HEPES, pH 7.5, 0.5% (w/v) bovine serum albumin, 5 mM MgCl2, 1 mM CaCl2, and tween 0.05%) for 1 h at room temperature with about 100 pM of the radioligand ([^125I]orexin A, 2100 Ci/mmole, 50 μl), and with various concentrations of compounds of the invention (50 μl) in triplicates; non-specific binding was determined in the presence of Orexin A (1 μM). Reactions were terminated by vacuum filtration, 3 washes of ice cold wash buffer (Tris-HCl pH 7.4/10 mM, with NaCl 154 mM).

Experiment [4] has as its target T2, hOx2R. Briefly: Radioligand binding assay, [125I]orexin A, hOx2R. The note with it: radioligand [125I]orexin A, competition. On the procedure:
as §2, §3, §4

Experiment [5] deals with C75/Bl6 mice. Nature of the experiment: Beam Braking Motor Activity Behavior (BBM). It is filed as in vivo. The settings on record: 100 mg/kg p.o.; for BBM: induced inactivity vs controls: in the first 3 hours. On the procedure: Beam Braking Motor Activity Behavior (BBM)
In the morning (9:00 h) of experimental day 1, the animals (C75/Bl6 mice; Janvier, France) are singly placed into home cages (Type 3, only containing sawdust, as well as food and water ad libitum). The cages are put into frames equipped with infrared beams to record the activity/inactivity of the mice (Moti 4.25, TSE Systems, Germany). The first 1.5 days are used for habituation (see Figure). Five minutes before lights-off of the second day, the animals (n=6/groups) are orally treated with vehicle, the compounds or a positive control (e.g. almorexant 100 mg/kg). Then, the animals stay in the setups for the following lights-off period and activity monitored.
The data are expressed as means±SEM (standard error of the means) of these difference scores for each hour as well as for the first four hours after administration, the time period which is most sensible to the effects of sleep-promoting compounds. Statistical analysis of the data is done with Systat 11 software. Since the data are normally distributed, analysis of variance (ANOVA) with treatment as between subject factor and the Dunnett test for post-hoc pairwise comparison were used. Furthermore, Student t-tests are used for single pair wise comparisons.

Experiment [6] concerns C75/Bl6 mice. Briefly: Sleep Electroencephalography (Sleep EEG). The note with it: 100 mg/kg p.o. The class given is in vivo. On the procedure: Sleep Electroencephalography (Sleep EEG):
The sleep pattern of tethered mice (C75/Bl6 mice; Janvier, France), chronically implanted with cortical EEG electrodes and an EMG electrode (neck muscle), is scored using the rodent scoring module of Somnologica software. Activity is monitored with an infrared sensor placed in the top of the cage and video recordings are collected with a day/night camera and infrared light during the dark phase (12 hours, lights off at 15:00). Mice are repeatedly acclimated to the recording setup and for a minimum of 3 days before each experiment. All treatments occur 5-10 min before lights off. On Day 1 mice are handled and the oral gavage introduced without application, on Day 2 vehicle is applied, on Day 3 compound is applied, and on Day 4 vehicle is applied. 22 hour recordings are scored in 10 s epochs and the total minutes per hour in Active wake (wake with locomotion), Quiet wake, and sleep are determined. Significance (p<0.05) is tested between vehicle and compound with Systat12 using the Restricted Maximum Likelihood test followed by post-hoc analysis using Fisher's Least Significant Differences test when either treatment or the interaction between treatment and hour had p<0.05.

`O=C1N(Cc2c[nH]c3ccccc23)CCCC12CCN(c1cnc3ccccc3n1)CC2` [Example 1, 2-((1H-indol-3-yl)methyl)-9-(quinoxalin-2-yl)-2,9-diazaspiro[5.5]undecan-1-one]: the Ki (commonly the equilibrium dissociation constant of an inhibitor or competing ligand from its target) in experiment [1] turned out to be 0.314 µM. For the same compound, the Ki in experiment [2] came to 0.03 µM. Also, binding in experiment [3] was characterised by a dissociation constant (Kd) of 0.374 µM. Besides, in experiment [4], the Kd (in general, the free concentration of one partner at which half of the binding sites on the other are occupied at equilibrium, for simple one-to-one binding) amounted to 0.042 µM. For the same compound, in experiment [5], the “BBM: duration of induced inactivity” value is 6 to 7 h and the “BBM: induced inactivity vs controls” value is listed as 15-22 minutes/hour. Moreover, in experiment [6], the “Sleep EEG: duration of reduced active wake and increased sleep” value is recorded as “up to 7 hours”; the “Sleep EEG: effect on quiet wake” value was “minimal effects”; the “Sleep EEG: reduction of active wake and increase of sleep vs controls” value is 7-16 minutes/hour.

Consider `CNC(=O)[C@@H](c1ccccc1)N1CCc2cc(OC)c(OC)cc2[C@@H]1CCc1ccc(C(F)(F)F)cc1` [almorexant, reference compound], for which, in experiment [5], the “BBM: duration of induced inactivity” value was 5 to 7 h and the “BBM: induced inactivity vs controls” value is on record as 18-21 minutes/hour. Moreover, in experiment [6], the “Sleep EEG: duration of reduced active wake and increased sleep” value was 5 to 6 h; the “Sleep EEG: effect on quiet wake” value is “without noticeable effect”; the “Sleep EEG: reduction of active wake and increase of sleep vs controls” value is 9-16 minutes/hour.

In the case of `Cc1cccc(CN2CCCC3(CCN(c4cnc5ccccc5n4)CC3)C2=O)c1` [Example 15, 2-(3-methylbenzyl)-9-(quinoxalin-2-yl)-2,9-diazaspiro[5.5]undecan-1-one], the inhibition constant (Ki) is 1.38 µM in experiment [1] and 0.155 µM in experiment [2]. In addition, the Kd in experiment [3] amounted to 1.4 µM; in experiment [4], 0.288 µM.

As for `O=C1N(Cc2cccc(-c3ccccc3)c2)CCCC12CCN(c1cnc3ccccc3n1)CC2` [Example 22, 2-(biphenyl-3-ylmethyl)-9-(quinoxalin-2-yl)-2,9-diazaspiro[5.5]undecan-1-one], the inhibition constant Ki is 0.518 µM in experiment [1] and 0.051 µM in experiment [2]. Besides, the Kd amounted to 1.32 µM in experiment [3] and 0.059 µM in experiment [4].

With `O=C1CCCC2(CCN(c3nc4cc(Cl)ccc4o3)CC2)N1Cc1cccc2[nH]ccc12` [Example 136, 1-((1H-indol-4-yl)methyl)-9-(5-chlorobenzo[d]oxazol-2-yl)-1,9-diazaspiro[5.5]undecan-2-one], the values for the Ki in experiment [1] and in experiment [2] were 0.657 µM and 0.011 µM, respectively. For the same compound, the Kd in experiment [3] worked out at 1.41 µM; in experiment [4], 0.096 µM.

On to `O=C1N(Cc2cccc(Cl)c2)CCCC12CCN(c1cnc3ccccc3n1)CC2` [Example 27, 2-(3-chlorobenzyl)-9-(quinoxalin-2-yl)-2,9-diazaspiro[5.5]undecan-1-one], for which the figures for the inhibitory constant (Ki) in experiment [1] and in experiment [2] were 0.74 µM and 0.084 µM, respectively. Besides, the Kd in experiment [3] was found to be 0.702 µM; in experiment [4], 0.169 µM.

With `O=C1N(Cc2cccc3cccnc23)CCCC12CCN(c1cnc3ccccc3n1)CC2` [Example 21, 2-(quinolin-8-ylmethyl)-9-(quinoxalin-2-yl)-2,9-diazaspiro[5.5]undecan-1-one], the Ki is 1.76 µM in experiment [1] and 0.213 µM in experiment [2]. Besides, the Kd in experiment [3] worked out at 3.28 µM; in experiment [4] it was 0.211 µM.

Regarding `Cc1onc(-c2ccccc2)c1CN1CCCC2(CCN(c3cnc4ccccc4n3)CC2)C1=O` [Example 34, 2-((5-methyl-3-phenylisoxazol-4-yl)methyl)-9-(quinoxalin-2-yl)-2,9-diazaspiro[5.5]undecan-1-one], the Ki in experiment [1] came to 1.56 µM; in experiment [2], 0.088 µM. The Kd in experiment [3] was 4.32 µM; in experiment [4], 0.181 µM.

As for `O=C1N(Cc2ccccc2C(F)(F)F)CCCC12CCN(c1cnc3ccccc3n1)CC2` [Example 23, 9-(quinoxalin-2-yl)-2-(2-(trifluoromethyl)benzyl)-2,9-diazaspiro[5.5]undecan-1-one], the Ki in experiment [1] came out at 2.74 µM; in experiment [2] it was 0.28 µM. Besides, the Kd was found to be 4.48 µM in experiment [3] and 1.09 µM in experiment [4].

With `O=C1N(Cc2c[nH]c3ncccc23)CCCC12CCN(c1cnc3ccccc3n1)CC2` [Example 57, 2-((1H-pyrrolo[2,3-b]pyridin-3-yl)methyl)-9-(quinoxalin-2-yl)-2,9-diazaspiro[5.5]undecan-1-one], the Ki in experiment [1] amounted to 1.03 µM; in experiment [2], 0.092 µM. For the same compound, the Kd in experiment [3] is 0.959 µM; in experiment [4], 0.159 µM.

As for `O=C1CCCC2(CCN(c3cnc4ccccc4n3)CC2)N1Cc1cccc2[nH]ccc12` [Example 38, 1-((1H-indol-4-yl)methyl)-9-(Quinoxalin-2-yl)-1,9-diazaspiro[5.5]undecan-2-one], the Ki in experiment [1] was 0.013 µM; in experiment [2], 0.001 µM. The figures for the Kd in experiment [3] and in experiment [4] were 0.017 µM and 0.007 µM, respectively.

For the compound `Cc1cc2c(CN3CCCC4(CCN(c5cnc6ccccc6n5)CC4)C3=O)cccc2[nH]1` [Example 13, 2-((2-methyl-1H-indol-4-yl)methyl)-9-(quinoxalin-2-yl)-2,9-diazaspiro[5.5]undecan-1-one], the figures for the inhibition constant Ki in experiment [1] and in experiment [2] were 0.365 µM and 0.035 µM, respectively. Besides, the Kd was found to be 0.776 µM in experiment [3] and 0.062 µM in experiment [4].

In the case of `O=C1N(Cc2cccc3c2OCO3)CCCC12CCN(c1cnc3ccccc3n1)CC2` [Example 9, 2-(benzo[d][1,3]dioxol-4-ylmethyl)-9-(quinoxalin-2-yl)-2,9-diazaspiro[5.5]undecan-1-one], the inhibition constant Ki was determined as 0.904 µM in experiment [1] and 0.035 µM in experiment [2]. Besides, the Kd in experiment [3] came to 2.35 µM; in experiment [4] it was 0.413 µM.

Take `O=C1N(Cc2cccc3ccccc23)CCCC12CCN(c1cnc3ccccc3n1)CC2` [Example 2, 2-(naphthalen-1-ylmethyl)-9-(quinoxalin-2-yl)-2,9-diazaspiro[5.5]undecan-1-one]: the Ki amounted to 0.482 µM in experiment [1] and 0.03 µM in experiment [2]. Also, the Kd in experiment [3] was determined as 0.36 µM; in experiment [4], 0.034 µM.

Take `O=C1N(Cc2ccccc2)CCCC12CCN(c1nc3ccccc3[nH]1)CC2` [Example 10, 9-(1H-benzo[d]imidazol-2-yl)-2-benzyl-2,9-diazaspiro[5.5]undecan-1-one]: the inhibition (in general, the drop in the measured response relative to a control, in per cent) at 10 µM in experiment [1] (measured at a concentration of 10 μM of compound) was 0%. The inhibitory constant (Ki) in experiment [2] was 1.07 µM. The Kd in experiment [3] turned out to be 3.35 µM; in experiment [4], 0.439 µM.
